According to ChEMBL document CHEMBL5335827, “Divergent Biosynthesis of Bridged Polycyclic Sesquiterpenoids by a Minimal Fungal Biosynthetic Gene Cluster” (J Nat Prod, 2024):
pIC50: −log10 of the molar value. Active and inactive are the calls of the source. The rule behind the calls is not given here.

Experiments:
Type in all cases: functional, cell-based
[1] = test system: HepG2; test: Cytotoxicity against human HepG2 cells at 20 uM by CCK8 assay
[2] = test system: LoVo; test: Cytotoxicity against human LoVo cells at 20 uM by CCK8 assay
[3] = test system: RAW264.7; test: Anti-inflammatory activity against mouse RAW264.7 cells assessed as inhibition of LPS-induced NO release by Griess assay

Row | SMILES | Activity [1] | Activity [2] | pIC50 [3]
1 | CC1(C)CCC[C@]2(C)C(CO)=CC1[C@H]2CCO | inactive | inactive | 
2 | C=C1C2C3[C@@H](C[C@@H]2O)[C@]1(C)CC[C@H](O)C3(C)C | inactive | inactive | 
3 | C=C1C2C(=O)C[C@@H]3C2C(C)(C)CCC[C@]13CO | inactive | inactive | 
4 | CC(=O)/C=C/[C@H]1[C@H]2C(C=O)=C(C)[C@]1(C)CC[C@@H]2C(C)C | inactive | inactive | 5.41
5 | C=C1[C@H](CO)C2[C@@H]([C@H](C)CO)CC[C@]1(C)[C@H]2CO | inactive | inactive | 
6 | C=C1C2C3[C@@H](C[C@@H]2O)[C@]1(C)CCC[C@@]3(C)CO | inactive | inactive | 
7 | C=C1[C@@H]2OC[C@H]3[C@@H]([C@H]2O)[C@@H](C(C)C)CC[C@@]13C | inactive | inactive | 
8 | C=C1[C@@H]2C(O)C(O)[C@H]3[C@@H]2[C@@H](C(C)C)CC[C@@]13CO (stereo partly specified) | inactive | inactive | 
9 | CC(C)[C@H]1CC[C@]2(CO)C(C)[C@@H]3C(O)C(O)[C@H]2C13 (mixture of isomers) | inactive | inactive | 
10 | C=C1C2C3[C@@H](C[C@@H]2O)[C@]1(C)[C@H](O)CCC3(C)C | inactive | inactive | 
11 | CC(C)[C@H]1CC[C@]2(C)[C@H]3CO[C@]2(CO)C=C[C@@H]13 | inactive | inactive | 
12 | C=C1[C@H]([C@@H]2C[C@H](O)C(=O)O2)[C@H]2[C@@H](C(C)C)CC[C@]1(C)[C@H]2CO | inactive | inactive | 
13 | C=C1C2C3[C@@H](C[C@@H]2O)[C@]1(C)C(=O)CCC3(C)C | inactive | inactive | 
14 | C=C1C2C(=O)C[C@@H]3C2C(C)(C)CC[C@H](O)[C@]13C | inactive | inactive | 
15 | C=C1CC2[C@@H](C(C)C)CC[C@]1(C)[C@H]2C(O)CO (stereo partly specified) | inactive | inactive | 
